Test results published in patent US10363239B2, “Method for inhibiting growth of cancer cells” (Pain Therapeutics, Inc., priority 2013, dated 2019).
Like-named read-outs stand apart in the source and are kept apart here.

Key:
[1] = target: FLNA pentapeptide of SEQ ID NO: 1 (Bn-VAKGL) (Homo sapiens, UniProt P21333); assay: FITC-NLX-based FLNA screening assay (inhibition of FITC-naloxone binding to Bn-VAKGL on streptavidin plates); details: for inhibition at 0.01 µM / inhibition at 0.1 µM / inhibition at 1 µM: 10 nM FITC-NLX; for Binding to FLNA (conclusion in words): preliminary study
mu opiate receptor (MOR) = assay: MOR agonist activity using [35S]GTPγS binding assay in striatal membranes; assay type: biochemical; details: for MOR agonist activity, FLNA-Binding Compound as Agonist 0.1 μM (preliminary study) / MOR agonist activity, FLNA-Binding Compound as Agonist 1 μM + βNFA (preliminary study) / MOR agonist activity, FLNA-Binding Compound as Agonist 1 μM (preliminary study): average of two runs; for MOR agonist activity (conclusion in words): preliminary study; for MOR agonist activity ([35S]GTPγS binding), FLNA-Binding Compound as Agonist 1 μM + BFNA: 1 μM compound + 1 μM β-funaltrexamine
How it was run: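 Striatal membranes (200 μg) were preincubated 5 min at 30 °C in HEPES pH 7.5 with 100 mM NaCl, 1 mM MgCl2 and 0.5 nM [35S]GTPγS, then 5 min more with 0.1–10 μM compound. Gαo was immunoprecipitated and bound radioactivity counted by scintillation.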

[2] = read-out: Percent Binding Inhibition, FLNA-binding compound 0.01 μM
[3] = read-out: Percent Binding Inhibition, FLNA-binding compound 0.1 μM
[4] = read-out: Percent Binding Inhibition, FLNA-binding compound 1 μM
[5] = Series C-2, 0.1 μM compound, relative to DAMGO
[6] = Series C-2, 0.1 μM compound, [35S]GTPγS binding to Gαo, striatal membranes
[7] = Series C-2, 1 μM compound + 1 μM β-FNA
[8] = Series C-2, 1 μM compound + β-FNA, relative to DAMGO + BFNA
[9] = Series C-2, 1 μM compound, relative to DAMGO
[10] = Series C-2, 1 μM compound, [35S]GTPγS binding to Gαo, striatal membranes
[11] = 0.1 μM compound relative to DAMGO
[12] = 1 μM compound + BFNA relative to DAMGO + BFNA
[13] = 1 μM compound relative to DAMGO
[14] = Series B, 0.1 μM compound, relative to DAMGO
[15] = Series B, 0.1 μM compound, [35S]GTPγS binding to Gαo, striatal membranes
[16] = Series B, 1 μM compound + 1 μM β-FNA
[17] = Series B, 1 μM compound + β-FNA, relative to DAMGO + BFNA
[18] = Series B, 1 μM compound, relative to DAMGO
[19] = Series B, 1 μM compound, [35S]GTPγS binding to Gαo, striatal membranes

## CC(=O)c1ccc(S(=O)(=O)N2CCOC23CCN(C)CC3)cc1 [Compound C0093M]
[1]; [2]
  inhibition at 0.01 µM: 44.8%
[1]; [3]
  inhibition at 0.1 µM: 49.9%
[1]; [4]
  inhibition at 1 µM: 53.5%
Mu opiate receptor (MOR); [5]
  % DAMGO (0.1 μM): 81.3%
Mu opiate receptor (MOR); [6]
  MOR agonist activity, percent [35S]GTPγS binding at the stated compound concentration: 140.0%
Mu opiate receptor (MOR); [7]
  MOR agonist activity, percent [35S]GTPγS binding at the stated compound concentration: 44.0%
Mu opiate receptor (MOR); [8]
  % DAMGO + BFNA: 127.5%
Mu opiate receptor (MOR); [9]
  % DAMGO (1 μM): 96.4%
Mu opiate receptor (MOR); [10]
  MOR agonist activity, percent [35S]GTPγS binding at the stated compound concentration: 211.8%

## O=S(=O)(c1ccc(OC(F)(F)F)cc1)N1CCOC12CCN(CC1CC1)CC2 [Compound 4]
[1]
  Binding to FLNA (conclusion in words): bound well to FLNA
Mu opiate receptor (MOR)
  MOR agonist activity, FLNA-Binding Compound as Agonist 0.1 μM (preliminary study): 133.9%
  MOR agonist activity, FLNA-Binding Compound as Agonist 1 μM + βNFA (preliminary study): 49.5%
  MOR agonist activity, FLNA-Binding Compound as Agonist 1 μM (preliminary study): 165.2%
  MOR agonist activity (conclusion in words): not as potent a MOR agonist

## CC(=O)c1ccc(S(=O)(=O)N2CC(=O)NC23CCNCC3)cc1 [Compound C0086M]
[1]; [2]
  inhibition at 0.01 µM: 37.9%
[1]; [3]
  inhibition at 0.1 µM: 48.1%
[1]; [4]
  inhibition at 1 µM: 53.4%
Mu opiate receptor (MOR); [5]
  % DAMGO (0.1 μM): 117.5%
Mu opiate receptor (MOR); [6]
  MOR agonist activity, percent [35S]GTPγS binding at the stated compound concentration: 206.8%
Mu opiate receptor (MOR); [7]
  MOR agonist activity, percent [35S]GTPγS binding at the stated compound concentration: 152.3%
Mu opiate receptor (MOR); [8]
  % DAMGO + BFNA: 692.3%
Mu opiate receptor (MOR); [9]
  % DAMGO (1 μM): 104.9%
Mu opiate receptor (MOR); [10]
  MOR agonist activity, percent [35S]GTPγS binding at the stated compound concentration: 265.3%

## CC1CCC(C(C)C)C(OCC(O)CN2CCN(C)CC2)C1 (stereo not shown) [Compound A0009]
[1]; FLNA-binding compound 0.01 μM, read-out: Percent Binding Inhibition
  inhibition at 0.01 µM: 26.4%
[1]; FLNA-binding compound 0.1 μM, read-out: Percent Binding Inhibition
  inhibition at 0.1 µM: 37.8%
[1]; FLNA-binding compound 1 μM, read-out: Percent Binding Inhibition
  inhibition at 1 µM: 38.9%
Mu opiate receptor (MOR); 0.1 μM compound
  MOR agonist activity ([35S]GTPγS binding), FLNA-Binding Compound as Agonist 0.1 μM: 70.2%
Mu opiate receptor (MOR); [11]
  % DAMGO (0.1 μM): 39.8%
Mu opiate receptor (MOR); 1 μM compound
  MOR agonist activity ([35S]GTPγS binding), FLNA-Binding Compound as Agonist 1 μM: 126.4%
Mu opiate receptor (MOR)
  MOR agonist activity ([35S]GTPγS binding), FLNA-Binding Compound as Agonist 1 μM + BFNA: 93.9%
Mu opiate receptor (MOR); [12]
  % DAMGO + BFNA: 142.9%
Mu opiate receptor (MOR); [13]
  % DAMGO (1 μM): 48.7%

## OC(COc1ccc(Br)c(F)c1)CN1CCSCC1 (stereo not shown) [Compound A0059]
[1]; [2]
  inhibition at 0.01 µM: 27.4%
[1]; [3]
  inhibition at 0.1 µM: 36.6%
[1]; [4]
  inhibition at 1 µM: 38.7%
Mu opiate receptor (MOR); 0.1 μM compound
  MOR agonist activity ([35S]GTPγS binding), FLNA-Binding Compound as Agonist 0.1 μM: 99.2%
Mu opiate receptor (MOR); [11]
  % DAMGO (0.1 μM): 63.5%
Mu opiate receptor (MOR); 1 μM compound
  MOR agonist activity ([35S]GTPγS binding), FLNA-Binding Compound as Agonist 1 μM: 129.9%
Mu opiate receptor (MOR)
  MOR agonist activity ([35S]GTPγS binding), FLNA-Binding Compound as Agonist 1 μM + BFNA: 85.7%
Mu opiate receptor (MOR); [12]
  % DAMGO + BFNA: 214.8%
Mu opiate receptor (MOR); [13]
  % DAMGO (1 μM): 56.4%

## COc1c2c(cc3c1C(CC(=O)CCc1ccc(F)cc1)[N+](C)(C)CC3)OCO2 (stereo not shown) [Compound B0018]
[1]; [2]
  inhibition at 0.01 µM: 37.2%
[1]; [3]
  inhibition at 0.1 µM: 43.7%
[1]; [4]
  inhibition at 1 µM: 47.6%
Mu opiate receptor (MOR); [14]
  % DAMGO (0.1 μM): 70.3%
Mu opiate receptor (MOR); [15]
  MOR agonist activity, percent [35S]GTPγS binding at the stated compound concentration: 118.8%
Mu opiate receptor (MOR); [16]
  MOR agonist activity, percent [35S]GTPγS binding at the stated compound concentration: 45.6%
Mu opiate receptor (MOR); [17]
  % DAMGO + BFNA: 69.1%
Mu opiate receptor (MOR); [18]
  % DAMGO (1 μM): 53.5%
Mu opiate receptor (MOR); [19]
  MOR agonist activity, percent [35S]GTPγS binding at the stated compound concentration: 143.0%

## C=CCN1CCC2(CC1)OCCN2S(=O)(=O)c1ccc(C)cc1 [Compound 10]
[1]
  Binding to FLNA (conclusion in words): bind well to FLNA
Mu opiate receptor (MOR)
  MOR agonist activity, FLNA-Binding Compound as Agonist 0.1 μM (preliminary study): 163.1%
  MOR agonist activity, FLNA-Binding Compound as Agonist 1 μM + βNFA (preliminary study): 60.4%
  MOR agonist activity, FLNA-Binding Compound as Agonist 1 μM (preliminary study): 191.8%
  MOR agonist activity (conclusion in words): MOR agonists

## COc1cccc(OC)c1CC(=O)CC1c2c(cc3c(c2OC)OCO3)CC[N+]1(C)C (stereo not shown) [Compound B0036]
[1]; [2]
  inhibition at 0.01 µM: 46.6%
[1]; [3]
  inhibition at 0.1 µM: 52.8%
[1]; [4]
  inhibition at 1 µM: 62.1%
Mu opiate receptor (MOR); [14]
  % DAMGO (0.1 μM): 39.2%
Mu opiate receptor (MOR); [15]
  MOR agonist activity, percent [35S]GTPγS binding at the stated compound concentration: 61.4%
Mu opiate receptor (MOR); [16]
  MOR agonist activity, percent [35S]GTPγS binding at the stated compound concentration: 65.1%
Mu opiate receptor (MOR); [17]
  % DAMGO + BFNA: 199.7%
Mu opiate receptor (MOR); [18]
  % DAMGO (1 μM): 52.1%
Mu opiate receptor (MOR); [19]
  MOR agonist activity, percent [35S]GTPγS binding at the stated compound concentration: 120.6%
